Measurements reported in paper PMC11013284, “Chemoselective Synthesis and Anti-Kinetoplastidal Properties of 2,6-Diaryl-4H-tetrahydro-thiopyran-4-one S-Oxides: Their Interplay in a Cascade of Redox Reactions from Diarylideneacetones” (Molecules, 2024).
Read-outs that look alike come from different tables or passages of the source.

Key:
in vitro = conditions: human, CC50 hMRC-5 (cytotoxicity)
Method: (§1) The cytotoxicity of compounds was evaluated toward human diploid embryonic lung fibroblast hMRC-5SV2 cells, derived from fetal lung tissue and first described in 1970. hMRC-5SV2 cells were cultured in 96-well plates with five concentrations of the compound (64, 16, 4, 1, and 0.25 μM). After 3 days of incubation, the cell viability was assessed fluorimetrically after the addition of resazurin, and fluorescence was measured (λex = 550 nm, λem = 590 nm). The results were expressed as a percentage reduction in cell growth/viability compared to control wells, and a 50% cytotoxic concentration (CC50) was calculated. The reference cytotoxic drugs were tamoxifen or ivermectin. Additionally, toxicity toward mouse macrophages was qualitatively observed. Three concentrations were included (64, 16, and 4 µM), and the range of toxicity was ranked from the least toxic to the most toxic compound.

[1] = system: L. infantum (MHOM/MA(BE)/67) amastigotes in primary peritoneal mouse macrophages; assay: L. infantum intramacrophage amastigote assay (microscopic burden); assay type: cell-based, Leishmania infantum; conditions: 5 days, mouse macrophages as host
Method: L. infantum (MHOM/MA(BE)/67 strain) amastigote were incubated for 5 days in 96-well plates with five concentrations of compound (64, 16, 4, 1, and 0.25 μM). Primary peritoneal mouse macrophages were used as host cells. Parasite burdens (i.e., the number of amastigotes per macrophage) were microscopically assessed. The results were expressed as a percentage reduction in parasite burden compared to untreated control wells, and an IC50 was calculated.

[2] = system: Trypanosoma cruzi (Tulahuen CL2 β-galactosidase) amastigotes in hMRC-5SV2 cells; assay: T. cruzi intracellular amastigote assay (β-galactosidase/CPRG); assay type: cell-based; conditions: intracellular amastigotes, 7 days; for IC50: read-out: IC50 T. cruzi intramacrophage amastigotes (converted)
Method: A nifurtimox-sensitive strain (Tulahuen CL2 β-galactosidase) in human lung fibroblast hMRC-5SV2 cells was incubated for 7 days in 96-well plates with five concentrations of compound (64, 16, 4, 1, and 0.25 μM). The parasitic burden was evaluated through the activity of the enzyme β-galactosidase on a specific chlorophenol red ß-D-galactopyranoside (CPRG) substrate. Live parasites converted the yellow-orange CPRG substrate into the red chromophore chlorophenol red, yielding a dark-red solution, which could be quantitatively measured at 540 nm after 4 h of incubation at 37 °C. The results were expressed as a percentage reduction in parasite growth/viability compared to control wells, and an IC50 was calculated.

[3] = system: Trypanosoma brucei brucei trypomastigotes, suramin-sensitive strain (Squib 427); assay: T. b. brucei growth/viability assay (resazurin); assay type: cell-based; conditions: 3 days
Method: After 3 days, parasite growth was assessed fluorimetrically following the addition of resazurin. After 24 h at 37 °C, fluorescence was measured (λex = 550 nm, λem = 590 nm). The results were expressed as a percentage reduction in parasite growth/viability compared to control wells, and a 50% inhibitory concentration (IC50) was calculated.

[4] = system: human diploid embryonic lung fibroblast hMRC-5SV2 cells; assay: in vitro
Method: as §1

macrophages = conditions: bracketed value after the intramacrophage IC50 (Table S5); Table S6
[5] = system: WT LV9 L. donovani intramacrophage amastigotes; assay: L. donovani intramacrophage amastigote assay; assay type: cell-based, Leishmania donovani; conditions: WT LV9, ± SD in Tables S5/S6, read-out: IC50 L. donovani intramacrophage amastigotes
[6] = Leishmania infantum, Macrophage, 120 h
[7] = Trypanosoma cruzi, TULAHUEN, 168 h

Compound	CC50 [4] [µM]	IC50 [1] [µM]	IC50 [2] [µM]	IC50 [3] [µM]	also measured
COc1ccc(O)c(/C=C/C(=O)/C=C/c2cc(OC)ccc2O)c1 [1l]					CC50 at 3 days (in vitro): 1.9 µM; IC50 [1, 6]: ≥ 32 µM; IC50 [2, 7]: 1 µM; IC50 ([3]; Trypanosoma brucei, 72 h): ≤ 0.3 µM
CC1CS(=O)(=O)CCN1/N=C/c1ccc([N+](=O)[O-])o1 (stereo not shown) [Nifurtimox, nifurtimox, reference compound]					IC50 [2, 7]: 0.845 ± 0.2 µM
O=C(/C=C/c1ccccc1)/C=C/c1ccc(C(F)(F)F)cc1 [1’b]	> 64	> 64	33.8	2.2	
Cc1ccc(C(=O)Nc2ccc(S(=O)(=O)O)c3cc(S(=O)(=O)O)cc(S(=O)(=O)O)c23)cc1NC(=O)c1cccc(NC(=O)Nc2cccc(C(=O)Nc3cc(C(=O)Nc4ccc(S(=O)(=O)O)c5cc(S(=O)(=O)O)cc(S(=O)(=O)O)c45)ccc3C)c2)c1 [Suramin, suramin, reference compound]				0.03	
COc1ccc([C@H]2CC(=O)C[C@H](c3ccc(OC)cc3)S2)cc1 (relative stereo) [2d]		≥ 64	≥ 64	≥ 64	CC50 ([4]; human, 3 days): ≥ 64 µM; CC50 at 3 days (in vitro): > 64 µM; IC50 [1, 6]: > 64 µM; IC50 [2, 7]: > 64 µM; IC50 ([3]; Trypanosoma brucei, 72 h): > 64 µM
O=C1CC(c2ccc(C(F)(F)F)cc2)SC(c2ccc(C(F)(F)F)cc2)C1 (racemic) [2r]	10.2	32.5	2.5	0.5	observed macrophage death / lysis observed at (macrophages): 200 µM; IC50 [5]: 68.6 ± 41.2 µM
O=C1CC(c2ccccn2)SC(c2ccccn2)C1 (stereo not shown) [2′w]		≥ 64	≥ 64	29.1	CC50 ([4]; human, 3 days): ≥ 64 µM; CC50 at 3 days (in vitro): > 64 µM; IC50 [1, 6]: > 64 µM; IC50 ([5]; Leishmania donovani): > 100 µM; IC50 [2, 7]: > 64 µM; IC50 ([3]; Trypanosoma brucei, 72 h): 29.6 µM
COc1ccc(C2CC(=O)CC(c3ccc(OC)cc3)[S+]2[O-])cc1 (mixture of isomers) [3d, (±)-trans-2,6-Di-(p-anisyl)-4H-tetrahydrothiopyran-4-one 1-oxide]		≥ 64	8.9		CC50 at 3 days (in vitro): 32.2 µM; IC50 [5]: 50.2 µM; IC50 ([3]; Trypanosoma brucei, 72 h): 3.1 µM
COc1ccc(C2CC(=O)CC(c3ccc(OC)c(OC)c3)S2)cc1OC (racemic) [2j]	9.3	32.5	7.3	8.1	observed macrophage death / lysis observed at (macrophages): > 150 µM; IC50 [5]: 19.3 ± 7.1 µM
CC/C(=C(\c1ccccc1)c1ccc(OCCN(C)C)cc1)c1ccccc1 [Tamoxifen, tamoxifen, reference compound]					CC50 at 3 days (in vitro): 9.12 µM
O=C(/C=C/c1ccccc1)/C=C/c1ccccn1 [1’n]	1.5	1.3	0.5	≤ 0.2	
CC(=O)Nc1ccc(C2CC(=O)CC(c3ccc(NC(C)=O)cc3)S2)cc1 (racemic) [2v]	> 64	> 64	> 64	> 64	observed macrophage death / lysis observed at (macrophages): > 100 µM; IC50 [5]: > 50 µM
O=C1C[C@@H](c2ccc(F)cc2)S[C@@H](c2ccc(F)cc2)C1 [2’g]	6.4	2.1	1.4	2.1	
O=C1C[C@H](c2ccccn2)S[C@@H](c2ccccn2)C1 (racemic) [2w]		≥ 64	≥ 64		CC50 ([4]; human, 3 days): ≥ 64 µM; CC50 at 3 days (in vitro): > 64 µM; IC50 [1, 6]: > 64 µM; IC50 ([5]; Leishmania donovani): > 100 µM; IC50 [2, 7]: > 64 µM; IC50 ([3]; Trypanosoma brucei, 72 h): 26.1 µM
COc1ccc(C2CC(=O)CC(c3ccc(OC)cc3)[S+]2[O-])cc1 (stereo not drawn) [3′d, (anti)- and (syn)-cis-2,6-Di-(p-anisyl)-4H-tetrahydro-thiopyran-4-one 1-oxides]		≥ 64	≥ 64	2.3	CC50 ([4]; human, 3 days): ≥ 64 µM; IC50 L. infantum intramacrophage amastigotes [1]: inactive; IC50 [5]: > 100 µM; IC50 T. cruzi intramacrophage amastigotes [2]: inactive
C=CCOc1ccc(/C=C/C(=O)/C=C/c2ccc(OCC=C)c(OC)c2)cc1OC [1k]	> 64	> 64	36.9	6.8	
O=C(Cn1ccnc1[N+](=O)[O-])NCc1ccccc1 [benznidazole, reference compound]					IC50 [2, 7]: 1.93 µM

Compound	CC50 [4] [µM]	IC50 [1] [µM]	IC50 [2] [µM]	IC50 [3] [µM]	also measured
COc1cc([C@@H]2CC(=O)C[C@H](c3cc(OC)c(C)cc3OC)S2)c(OC)cc1C [2’o]	> 64	5.1	37.2	32.5	
N#Cc1ccc(/C=C/C(=O)/C=C/c2ccccc2)cc1 [1’l]	38.7	7	3.3	≤ 0.2	
O=C(/C=C/c1ccccc1)/C=C/c1ncccn1 [1’r]	1.6	0.4	≤ 0.2	≤ 0.2	
CN(C)c1ccc(/C=C/C(=O)/C=C/c2ccc(C(F)(F)F)cc2)cc1 [1’c]	> 64	8	31.7	9.2	
CCCCCCCCCCCCCCCCOP(=O)([O-])OCC[N+](C)(C)C [miltefosine, Hexadecyl-Phosphoryl-Choline, reference compound]					IC50 ([5]; Leishmania donovani): 19.1 ± 0.1 µM
O=C1CC(c2ccccc2Cl)SC(c2ccccc2Cl)C1 (racemic) [2e]	> 64	32	> 64	> 64	observed macrophage death / lysis observed at (macrophages): > 150 µM; IC50 [5]: 14.2 ± 1.3 µM
CC[C@H](C)[C@H]1O[C@]2(CC[C@@H]1C)C[C@@H]1C[C@@H](C/C=C(\C)[C@@H](O[C@H]3C[C@H](OC)[C@@H](O[C@H]4C[C@H](OC)[C@@H](O)[C@H](C)O4)[C@H](C)O3)[C@@H](C)/C=C/C=C3\CO[C@@H]4[C@H](O)C(C)=C[C@@H](C(=O)O1)[C@]34O)O2 [ivermectine, ivermectin, reference compound]					CC50 ([4]; read-out: CC50 hMRC-5 (cytotoxicity), human hMRC-5SV2 fibroblasts, 3 days): 3.5 µM
N#Cc1ccc(C2CC(=O)CC(c3ccc(C#N)cc3)S2)cc1 (racemic) [2t]	> 64	> 64	42.5	1.2	observed macrophage death / lysis observed at (macrophages): > 100 µM; IC50 [5]: > 50 µM
CN(C)c1ccc(/C=C/C(=O)/C=C/c2ccc(F)cn2)cc1 [1’q]	32.2	32.5	> 64	13.3	
COc1cc(Br)c(OC)c([C@@H]2CC(=O)C[C@H](c3cc(OC)cc(Br)c3OC)S2)c1 [2’q]	> 64	8.6	17.1	32.2	
O=C1CC(c2ccco2)SC(c2ccco2)C1 (racemic) [2z]	> 64	> 64	> 64	> 64	observed macrophage death / lysis observed at (macrophages): > 150 µM; IC50 [5]: 3.2 ± 0.8 µM
O=C(/C=C/c1ccccc1)/C=C/c1ccncc1 [1’o]	2	0.5	≤ 0.2	≤ 0.2	
Cc1ccccc1/C=C/C(=O)/C=C/c1ccccc1C [1b]	> 64	8.1	51.7	> 64	observed macrophage death / lysis observed at (macrophages): > 37.5 µM; IC50 [5]: 11.9 ± 1.1 µM
COc1ccc(/C=C/C(=O)/C=C/c2ccc(OC)cc2)cc1 [1d]		≥ 64		1.24	CC50 ([4]; human, 3 days): ≥ 64 µM; CC50 at 3 days (in vitro): > 64 µM; IC50 [1, 6]: > 64 µM; IC50 [2, 7]: 10.7 µM; IC50 ([3]; Trypanosoma brucei, 72 h): 1.2 µM
COc1cc(/C=C/C(=O)/C=C/c2ccc(O)c(OC)c2)ccc1O [1i]	1.1	≥ 32	1	≤ 0.3	
O=C1C[C@@H](c2ccccc2Cl)S[C@@H](c2ccccc2Cl)C1 [2’e]	> 64	> 64	35	37.6	
COc1ccc(C2CC(=O)CC(c3ccc(OC)cc3)S2)cc1 (stereo not shown) [2′d]		≥ 64	≥ 64	≥ 64	CC50 ([4]; human, 3 days): ≥ 64 µM; CC50 at 3 days (in vitro): > 64 µM; IC50 [1, 6]: > 64 µM; IC50 ([5]; Leishmania donovani): > 100 µM; IC50 [2, 7]: > 64 µM; IC50 ([3]; Trypanosoma brucei, 72 h): > 64 µM
